Source: patent US20110160255A1, “INHIBITORS OF AKT ACTIVITY” (priority 2008, published 2011)

Molecular target: T1, full length AKT1 (Homo sapiens, UniProt P31749)
T1 construct: His tag (from vector pFastBacHTb) (N); made in house; host or cells: Baculovirus, insect cells (virus made in Sf9, T. ni cells infected; the purification text says sf9 cells)
Test: Full-length AKT enzyme assay (substrate phosphorylation, SPA)
Format: biochemical
Settings: in at least one experimental run; pIC50 = -log(IC50), IC50 in molar units; 4 uM ATP, 10 nM activated enzyme; read-out: pIC50 against full length AKT1 (converted)
Source text: Full-length human AKT1 gene was amplified by PCR from a plasmid containing myristylated-AKT1-ER (gift from Robert T. Abraham, Duke University under MTA, described in Klippel et al. in Molecular and Cellular Biology 1998 Volume 18 p. 5699) using the 5′ primer: SEQ. ID NO: 2 5′ […] 3′ and the 3′ primer: SEQ. ID NO: 3 […] 3′. The 5′ primer included a BamHI site and the 3′ primer included an XhoI site for cloning purposes. The resultant PCR product was subcloned in pcDNA3 as a BamHI/XhoI fragment. A mutation in the sequence (TGC) coding for a Cysteine^25 was converted to the wild-type AKT1 sequence (CGC) coding for an Arginine^25 by site-directed mutagenesis using the QuikChange® Site Directed Mutagenesis Kit (Stratagene). The AKT1 mutagenic primer: SEQ. ID NO: 4 5′[…] and selection primer: SEQ. […] For expression/purification purposes, AKT1 was isolated as a BamHI/XhoI fragment and cloned into the BamHI/XhoI sites of pFastbacHTb (Invitrogen).
Expression was done using the BAC-to-BAC Baculovirus Expression System from Invitrogen (catalog #10359-016). […]
Compounds of the present invention were tested for AKT 1, 2, and 3 protein serine kinase inhibitory activity in substrate phosphorylation assays. […] Substrate phosphorylation was detected by the following procedure. […]

T1 sequence (P31749 whole entry): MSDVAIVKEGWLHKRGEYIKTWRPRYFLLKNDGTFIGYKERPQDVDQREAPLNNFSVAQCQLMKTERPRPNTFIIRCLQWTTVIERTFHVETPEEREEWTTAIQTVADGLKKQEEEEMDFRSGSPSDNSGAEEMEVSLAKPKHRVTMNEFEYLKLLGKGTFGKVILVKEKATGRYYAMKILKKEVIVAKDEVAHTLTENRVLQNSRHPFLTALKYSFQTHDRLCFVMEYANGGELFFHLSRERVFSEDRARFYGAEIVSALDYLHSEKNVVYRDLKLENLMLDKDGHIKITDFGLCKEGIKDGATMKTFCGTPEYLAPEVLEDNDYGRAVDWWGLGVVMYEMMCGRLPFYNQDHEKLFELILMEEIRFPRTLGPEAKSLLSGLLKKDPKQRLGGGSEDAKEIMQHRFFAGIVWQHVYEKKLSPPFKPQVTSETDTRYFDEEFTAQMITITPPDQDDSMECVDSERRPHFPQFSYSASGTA

IC50: 501 nM
SMILES: Cn1nccc1-c1nc(C(=O)N[C@H](CN)Cc2cccc(F)c2)cs1 [Example 1, N-{(1S)-2-amino-1-[(3-fluorophenyl)methyl]ethyl}-2-(1-methyl-1H-pyrazol-5-yl)-1,3-thiazole-4-carboxamide]
